Data as given in patent US12370170B2, “Composition comprising naphthoquinone-based compound as active ingredient, for preventing or ameliorating fatigue, cachexia, pain, cognitive decline and hematopoietic stem cell reduction which are side effects related to anticancer drug treatment” (NADIANBIO LTD., priority 2016, dated 2025).

Columns and labels:
Type in all cases: in vivo, C57BL/6 mice
orexin = assay: Orexin protein in hypothalamus by ELISA, 4×ACP animal model; conditions: β-lapachone 20 mg/kg oral daily from 3 days before, 2 days after ACP
Description: (§1) In this invention, 11 weeks old C57BL/6 mice were used. All the mice used in the experiments of the invention were raised in an aseptic animal room at the temperature of 22˜26 L with the humidity of 55˜60%. The mice were allowed to take general solid feed (SAMTACO Co., Ltd., Korea) and water freely. The mice were adapted for 1 week before the experiment. All the experiments were performed after obtaining approval from the clinical trial management committee in accordance with the laboratory animal care and ethics regulations of Wonkwang University. The mouse animal model of the present invention was treated with different anticancer drugs. Particularly, one kind of anticancer drug was administered intraperitoneally one time or more, or several kinds of anticancer drugs were administered once or more times or at different concentrations, leading to the establishment of the animal model of the invention. […]
To analyze orexin protein in the 4×ACP animal model prepared by the same manner as described in Example 8, the hypothalamus of the mouse was extracted, followed by the preparation of a homogenate. Orexin (MyBioSource, MBS2505504) was analyzed by ELISA to investigate the regulatory effect of β-lapachone on orexin.

[1] = tested on: inflammatory cytokines TNF-α, IL-1β, IL-6 and IL-17; assay: Plasma inflammatory cytokines by ELISA in adriamycin animal model; conditions: adriamycin 4 mg/kg/day i.p. ×3; compound 20 mg/kg oral daily from 3 days before; 4 days after final adriamycin; vs adriamycin group
Description: as §1, with “drugs.” for “drugs. Particularly, one kind of anticancer drug was administered intraperitoneally one time or more, or several kinds of anticancer drugs were administered once or more times or at different concentrations, leading to the establishment of the animal model of the invention.”
Particularly, plasma was isolated from the adriamycin animal model prepared by the same manner as described in Example 4, and the inflammatory cytokines TNF-α (R&D Systems, MTA00B), IL-1β (R&D Systems, MLB00C), IL-6 (R&D Systems, M6000B) and IL-17 (R&D Systems, M1700) were analyzed by ELISA (enzyme-linked immunosorbent assay).
To investigate the regulatory effect of β-lapachone on adriamycin induced inflammatory cytokines, plasma was isolated from the adriamycin animal model prepared by the same manner as described in Example 4, and the inflammatory cytokines TNF-α, IL-1β, IL-6 and IL-17 were analyzed by ELISA.

[2] = tested on: inflammatory cytokines TNF-α and IL-1β; assay: Brain inflammatory response: TNF-α and IL-1β in hypothalamus (RT-PCR, ELISA), 4×ACP animal model; conditions: β-lapachone 20 mg/kg oral, ELISA of homogenate
Description: In this invention, 11 weeks old C57BL/6 mice were used. All the mice used in the experiments of the invention were raised in an aseptic animal room at the temperature of 22˜26 L with the humidity of 55˜60%. The mice were allowed to take general solid feed (SAMTACO Co., Ltd., Korea) and water freely. The mice were adapted for 1 week before the experiment. All the experiments were performed after obtaining approval from the clinical trial management committee in accordance with the laboratory animal care and ethics regulations of Wonkwang University. The mouse animal model of the present invention was treated with different anticancer drugs. Particularly, one kind of anticancer drug was administered intraperitoneally one time or more, or several kinds of anticancer drugs were administered once or more times or at different concentrations, leading to the establishment of the animal model of the invention. In the adriamycin-induced animal model, the mice were divided into 6 groups as follows: the control group administered with PBS (Control, 5 mice), the group administered intraperitoneally with adriamycin (4 mg/kg/day) 3 times (ADR, 5 mice), the group administered orally with dunnione or β-lapachone from 3 days before the adriamycin treatment daily (20 mg/kg, 5 mice), and the group administered with dunnione or β-lapachone (20 mg/kg, 5 mice). 4 days after the final adriamycin treatment, analysis of the mice was performed.
The present inventors established an animal model co-treated with three different anticancer drugs in this experiment. The anticancer drugs used herein were adriamycin (ADR), cyclophosphamide (CYP) and paclitaxel (PTX), which were indicated as ACP. […]
A homogenate was prepared with the mouse hypothalamus extracted from the 4×ACP animal model prepared by the same manner as described in Example 8. Then, the expressions of the inflammatory cytokines TNF-α and IL-1β in the brain tissue were analyzed by ELISA.

Compound: CC1(C)CCC2=C(O1)c1ccccc1C(=O)C2=O [β-lapachone, 3,4-Dihydro-2,2-dimethyl-2H-naphtho(1,2-b) pyran-5,6-dione]
- orexin reduction in the hypothalamus (orexin): significantly restored
- level of inflammatory cytokines (TNF-α, IL-1β, IL-6, IL-17) in plasma [1]: significantly reduced
- up-regulations of TNF-α and IL-1β in the hypothalamus [2]: significantly suppressed
